Measured values from US20230110128A1, “USE OF ANTIBODY DRUG CONJUGATES COMPRISING TUBULIN DISRUPTING AGENTS TO TREAT SOLID TUMOR” (Seagen Inc., priority 2018, published 2023).

Experiments:
MCF7 cells = assay: ATP secretion from MCF7 cells; assay type: cell-based; conditions: after 48 hours of treatment
MCF7 breast cancer cells = assay: Western blot analysis of ER stress response in MCF7 cells; assay type: cell-based; conditions: FIG. 16A
Description: MCF7 breast cancer cells were treated with 100 nM MMAE for 16 hours and harvested RIPA buffer for western blot analysis.
MCF7 cells were treated with MMAE or an MMAE-containing ADC (SGN-LIV1A) for 16 hours and harvested in […] for western bot analysis. […] Induction of ICD is also characterized by the secretion of ATP and HMGB1. Extracellular ATP serves as a strong chemotactic signal, promoting immune cell migration to the tumor site. Upon arrival, extracellular HMGB1 signals through various pro-inflammatory receptors (TLR2, TLR4, RAGE) to activate antigen-presenting cells, thereby promoting immune activity within the tumor.

[1] = system: MiaPaca-CHOP-luciferase cells subcutaneously engrafted; assay: Tumoral CHOP luciferase signal in engrafted MiaPaca-CHOP-luciferase tumors; assay type: in vivo, NOD/SCID/gamma-chain deficient mice; conditions: intratumorally; MMAE 0.36 mg/kg, vincristine 1.0 mg/kg, Paclitaxel 10 mg/kg
Description: MiaPaca-CHOP-luciferase cells were subcutaneously engrafted into NOD/SCID/gamma-chain deficient mice. Subcutaneous tumors were treated intratumorally with MMAE (0.36 mg/kg), vincristine (1.0 mg/kg), and Paclitaxel (10 mg/kg) and tumoral luciferase signal was monitored over time.

MiaPaca2 cells = assay: ATP secretion from MiaPaca2 cells; assay type: cell-based; conditions: supernatant after 16 hours
Description: MiaPaca2 cells were treated with MMAE, Vincristine, or Paclitaxel. Supernatant was collected after 16 hours of treatment, and analyzed for ATP secretion.

BxPC-3 cells = assay: ATP secretion from BxPC-3 cells; assay type: cell-based; conditions: 17 hours
[2] = system: HeLa cervical cancer cells; assay: Western blot analysis of ER stress in HeLa cells; assay type: cell-based; conditions: 1000 nM or 100 nM, 16 hours
Description: HeLa cervical cancer cells were treated with 1000 nM or 100 nM MMAE, Vincristine, or Paclitaxel for 16 hours and harvested for western blot analysis.

[3] = system: BxPC3 and HPAFII (pancreas) cells co-cultured with macrophages; assay: Macrophage antigen presentation after co-culture with treated pancreas tumor cells; assay type: cell-based; conditions: BxPC3 and HPAFII treated 24 hours; macrophages harvested 4 days after co-culture
Description: Macrophages were enriched from PBMCs from 2 healthy donors by adhering PBMCs to cell culture-grade plastic. Non-adherent cells were removed 24 hours later, leaving a population of cells enriched for macrophages.
BxPC3 and HPAFII (pancreas) cells were treated with MMAE, vincristine, and Paclitaxel for 24 hours. Cells were washed and harvested, and subsequently co-cultured with the enriched macrophages prepared above. Macrophages were harvested 4 days after co-culture and assayed for immune activation by flow cytometry. Level of antigen-presentation (as measured by frequency of MHCII-expressing cells) was quantified and normalized to macrophages that were co-cultured with untreated tumor cells.

[4] = system: A2058, SK-MEL-5, SK-MEL-28 (skin) cell lines; assay: ATP secretion in skin cell lines; assay type: cell-based; conditions: A2058, SK-MEL-5, SK-MEL-28, after 17 hours
Description: (§1) Skin tumor lines A2058, SK-MEL-5 and SK-MEL-28, Calu-1 (lung), HT-1080 (fibrosarcoma), SK-MES-1 (lung), and BXPC3 (pancreas) cells were treated with MMAE, vincristine, and Paclitaxel. Supernatant was collected after 17 hours of treatment, and analyzed for ATP secretion.

[5] = system: A2058, SK-MEL-5, SK-MEL-28, Calu-1, HT-1080, SK-MES-1, BXPC3 and HPAFII cells; assay: HMGB1 release by ELISA in a panel of solid tumor cell lines; assay type: cell-based; conditions: supernatant after one night of treatment
Description: A2058, SK-MEL-5, SK-MEL-28 (skin), Calu-1, HT-1080, SK-MES-1 (lung), and BXPC3 and HPAFII (pancreas) cells were treated with an MMAE-containing ADC (e.g., anti-p97-MMAE or anti-CD71-MMAE) or Paclitaxel. Supernatant was collected after one night of treatment, and analyzed for HMGB1 release by ELISA. […] See, e.g., FIG. 70 and additional description below.

[6] = system: PC-3 prostate tumor cells; assay: ATP secretion from PC-3 cells; assay type: cell-based; conditions: supernatant after 16 hours
Description: PC-3 prostate tumor cells were also treated with MMAE, Vincristine, or Paclitaxel. Supernatant was collected after 16 hours of treatment, and analyzed for ATP secretion. […] PC-3 cells were treated for 24 hours with an MMAE-containing ADC (SGN-LIV1A) or MMAE and harvested in RIPA buffer for western blot analysis (FIG. 3C).

[7] = system: MiaPaca-CHOP-luciferase cells; assay: CHOP-driven luciferase reporter assay of severe ER stress; assay type: cell-based; conditions: after 16 hours
Description: Severe ER stress leads to upregulation of CHOP, and initiates mitochondrial apoptosis. MiaPaca2 pancreatic tumor cells were engineered to express a CHOP-driven luciferase reporter system (purchased from Signosis, Inc.) that allows for quantifiable monitoring of severe ER stress. MiaPaca-CHOP-luciferase cells were treated with MMAE, vincristine, and Paclitaxel, and assayed for luciferase expression after 16 hours.

[8] = system: Hep3b, Huh7, and JHH7 cells co-cultured with macrophages; assay: Cytokine and chemokine production in macrophage co-culture with treated liver tumor cells; assay type: cell-based; conditions: Huh7, JHH7 co-culture supernatant 24 hours, ELISA, normalized to untreated
Description: (§2) Liver tumor lines Hep3b, Huh7, and JHH7 cells were treated with MMAE, Tubulysin M, vincristine, and Paclitaxel for 24 hours and analyzed for ATP secretion. […] Cells were washed and harvested, and subsequently co-cultured with enriched macrophages prepared as above. Macrophages were harvested 4 days after co-culture and assayed for immune activation by flow cytometry. Levels of costimulation (as measured by CD86 expression, JHH7) and antigen-presentation (as measured by frequency of MHCII-expressing cells, Hep3b, Huh7, and JHH7) were quantified and normalized to macrophages that were co-cultured with […]. […] Supernatant from the co-culture of macrophages and dying liver tumor cells was harvested 24 hours later and assayed for levels of cytokine and chemokine production by ELISA and normalized to macrophages that were co-cultured with untreated tumor cells.

[9] = system: Hep3b, Huh7, and JHH7 cells; assay: ATP secretion from liver tumor lines; assay type: cell-based; conditions: Huh7, JHH7, 24 hours
Description: as §2

[10] = system: A2058, SK-MEL-5, SK-MEL-28, Calu-1, HT-1080, SK-MES-1 and BXPC3 cells; assay: ATP secretion in a panel of solid tumor cell lines; assay type: cell-based; conditions: 7 cell lines, supernatant after 17 hours
Description: as §1

[11] = system: T-24 cells co-cultured with macrophages; assay: Macrophage antigen presentation after co-culture with treated T-24 cells; assay type: cell-based; conditions: T-24 treated 24 hours; macrophages harvested 4 days after co-culture
Description: (§3) T-24 (bladder) cells were treated with MMAE or an MMAE-containing ADC (ASG-22ME) for 48 hours and analyzed for ATP secretion. […] T-24 cells were also treated with MMAE, an MMAE-containing ADC (ASG22ME, Enfortumab vedotin), vincristine, and Paclitaxel for 24 hours. Cells were washed and harvested, and subsequently co-cultured with the enriched macrophages as above. Macrophages were harvested 4 days after co-culture and assayed for immune activation by flow cytometry. Level of antigen-presentation (as measured by frequency of MHCII-expressing macrophages) was quantified and normalized to macrophages that were co-cultured with untreated tumor cells. […] Supernatant from the co-culture of macrophages and dying T-24 tumor cells was harvested after 24 hours and assayed for levels of cytokine and chemokine production by ELISA and normalized to macrophages that were co-cultured with untreated tumor cells.

[12] = system: T-24 tumor cells co-cultured with macrophages; assay: Cytokine and chemokine production in macrophage co-culture with treated T-24 cells; assay type: cell-based; conditions: T-24 co-culture supernatant after 24 hours, ELISA, normalized to untreated
Description: as §3

T-24 (bladder) cells = assay: ATP secretion from T-24 cells; assay type: cell-based; conditions: 48 hours
Description: as §3

MDA-MB-468 cells = assay: ATP secretion from MDA-MB-468 cells; assay type: cell-based; conditions: supernatant after 48 hours
Description: MDA-MB-468 cells were treated with MMAE or an MMAE-containing ADC (ASG-22ME). Supernatant was collected after 48 hours of treatment, and analyzed for ATP secretion.

Q: Which ATP secretion (MCF7 cells) does the source give for `CC(=O)O[C@@]12CO[C@@H]1C[C@H](O)[C@@]1(C)C(=O)[C@H](O)C3=C(C)[C@@H](OC(=O)[C@H](O)[C@@H](NC(=O)OC(C)(C)C)c4ccccc4)C[C@@](O)([C@@H](OC(=O)c4ccccc4)[C@H]21)C3(C)C` [Docetaxel, docetaxel, reference compound] here?
A: neither Paclitaxel nor Docetaxel elicited ATP secretion

Q: What about the “Severe ER stress (phosphorylation of IRE1 and JNK)” value (MCF7 breast cancer cells) of the same compound?
A: do not elicit JNK phosphorylation

Q: How did the “Severe ER stress in engrafted tumors (tumoral luciferase signal over time)” value [1] turn out when `CC(=O)O[C@H]1C(=O)[C@@]2(C)[C@H]([C@H](OC(=O)c3ccccc3)[C@]3(O)C[C@H](OC(=O)[C@H](O)[C@@H](NC(=O)c4ccccc4)c4ccccc4)C(C)=C1C3(C)C)[C@]1(OC(C)=O)CO[C@@H]1C[C@@H]2O` [Paclitaxel, paclitaxel] was run?
A: does not induce ER stress

Q: What about the ATP secretion (MiaPaca2 cells) of the same compound?
A: modest ATP secretion

Q: What about the ATP secretion (BxPC-3 cells) of the same compound?
A: equivalent levels of ATP secretion

Q: And the “ER stress responses (phosphorylation of IRE1)” value [2]?
A: activated ER stress responses

Q: And the “Severe ER stress response (phosphorylation of JNK)” value [2]?
A: Robust JNK phosphorylation was not seen with lower doses

Q: And the “Antigen-presentation (frequency of MHCII-expressing cells)” value [3]?
A: did not lead to changes in macrophage antigen-presentation

Q: And the “ATP secretion (skin cell lines responding)” value [4]?
A: ATP secretion from only 1 of 3 cell lines

Q: What about the ATP secretion (MCF7 cells) of the same compound?
A: neither Paclitaxel nor Docetaxel elicited ATP secretion

Q: And the “HMGB1 release (cell lines responding)” value [5]?
A: HMGB1 release in most of the cell lines assayed (5/7)

Q: And the ATP secretion [6]?
A: modest ATP secretion

Q: What about the “Luciferase signal as a proxy of severe ER stress induction” value [7] of the same compound?
A: modest luciferase signal at the peak doses

Q: What about the “Severe ER stress (phosphorylation of IRE1 and JNK)” value (MCF7 breast cancer cells) of the same compound?
A: do not elicit JNK phosphorylation

Q: Which “Cytokine and chemokine production” value [8] does the source give for `CC[C@H](C)[C@H](NC(=O)[C@H]1CCCCN1C)C(=O)N(C)[C@H](C[C@@H](OC(C)=O)c1nc(C(=O)N[C@@H](Cc2ccccc2)C[C@H](C)C(=O)O)cs1)C(C)C` [Tubulysin M, tubulysin M, reference compound] here?
A: increase of the indicated cytokines and chemokines that was more robust than treatment with Paclitaxel

Q: What about the “ATP secretion (cell lines responding)” value [9] of the same compound?
A: potent ATP secretion from 3 of 3 cell lines evaluated

Q: For `C=C1C[C@@H]2CC[C@@]34C[C@H]5O[C@H]6[C@@H](O3)[C@H]3O[C@H](CC[C@@H]3O[C@H]6[C@H]5O4)CC(=O)C[C@@H]3[C@@H](OC)[C@@H](C[C@H](O)CN)O[C@H]3C[C@H]3O[C@@H](CC[C@@H]1O2)C[C@@H](C)C3=C` [eribulin, reference compound], which ATP secretion (MCF7 cells) is on record?
A: Increased AIR secretion

Q: What about the “Severe ER stress (phosphorylation of IRE1 and JNK)” value (MCF7 breast cancer cells) of the same compound?
A: elicits severe ER stress (phosphorylation of IRE1 and JNK)

Q: Which “Severe ER stress in engrafted tumors (tumoral luciferase signal over time)” value [1] does the source give for `CC[C@]1(O)C[C@H]2CN(CCc3c([nH]c4ccccc34)[C@@](C(=O)OC)(c3cc4c(cc3OC)N(C=O)[C@H]3[C@@](O)(C(=O)OC)[C@H](OC(C)=O)[C@]5(CC)C=CCN6CC[C@]43[C@@H]65)C2)C1` [vincristine] here?
A: rapidly elicited severe ER stress

Q: And the “ATP secretion (cell lines responding)” value [10]?
A: ATP secretion in most of the cell lines assayed (6/7)

Q: And the “ATP secretion response compared with Paclitaxel” value [10]?
A: more robust response than Paclitaxel in all cell lines assayed

Q: What about the ATP secretion (BxPC-3 cells) of the same compound?
A: equivalent levels of ATP secretion

Q: What about the “ER stress responses (phosphorylation of IRE1)” value [2] of the same compound?
A: activated ER stress responses

Q: What about the “Antigen-presentation (frequency of MHCII-expressing cells)” value [3] of the same compound?
A: increase in antigen-presentation in 1/2 tumor cell lines

Q: And the ATP secretion [6]?
A: robust ATP secretion

Q: And the “Luciferase signal as a proxy of severe ER stress induction” value [7]?
A: dose-dependent increase in luciferase signal

Q: Which “Macrophage antigen presentation (frequency of MHCII-expressing macrophages)” value [11] does the source give for ASG-22ME here?
A: increase in macrophage antigen presentation that was more robust than treatment with Paclitaxel

Q: What about the “Cytokine and chemokine production” value [12] of the same compound?
A: increase of the indicated cytokines and chemokines that was more robust than treatment with Paclitaxel

Q: What about the ATP secretion (T-24 (bladder) cells) of the same compound?
A: potent ATP secretion

Q: And the ATP secretion (MDA-MB-468 cells)?
A: robust ATP secretion that was comparable to thapsigargin
